Reference: patent US20200109362A1 (priority 2016, published 2020)
“Also recorded” adds a separate entry of the source.

How the values were obtained:
Assay type in all cases: cell-based, human
TK6 cells = tested on: TK6 cells
TK6+MGMT cells = assay: ToxChip (μCC) microcolony toxicity assay, TK6+MGMT cells; details: TK6+MGMT vs TK6
MCL-5 cells = assay: ToxChip (μCC) microcolony toxicity assay, MCL-5 cells

**Q.** With `O=NN(CCCl)C(=O)NCCCl` [BCNU, N,N′-bis (2-chloroethyl)-N-nitrosourea] as the molecule, how does the “PF value as % of the control PF” value (TK6 cells; TK6 cells, 10 μM BCNU) read?
**A.** 96%

**Q.** And the “PFF (total PF fluorescence) as % of the control PFF” value (TK6 cells; TK6 cells, 10 μM BCNU)?
**A.** 53%

**Q.** And the “microcolony growth (F/M distribution) after treatment” value (TK6 cells; TK6 cells, BCNU 1 hour, up to 72 hours growth)?
**A.** less able to form larger colonies; also recorded: inhibits growth of colonies

**Q.** What about the “difference in survival between TK6 and TK6+MGMT when challenged” value (TK6+MGMT cells; PFF method) of the same molecule?
**A.** approximately 1 log

**Q.** And the “difference in sensitivity between TK6 and TK6+MGMT” value (TK6+MGMT cells; μCC, treatment 1 hour at 37° C.)?
**A.** significant difference in sensitivity; also recorded: MGMT significantly rescues TK6 cells

**Q.** For `CC(=O)N1CCN(c2ccc(OCC3COC(Cn4ccnc4)(c4ccc(Cl)cc4Cl)O3)cc2)CC1` (stereo not drawn) [KET, ketoconazole], which “rescue of MCL-5 cells from AFB1 toxicity by co-treatment” value (MCL-5 cells) is on record?
**A.** significant rescue; also recorded: significantly rescues

**Q.** What does the source list for aflatoxin B1 [AFB1]?
**A.** toxicity to TK6 cells (TK6 cells): relatively unaffected; difference in sensitivity between TK6 and MCL-5 cells (MCL-5 cells): more than 2 log; sensitivity of MCL-5 cells compared with TK6 cells (MCL-5 cells): significantly more sensitive
